From PMC10954694, “Expression of ALS-PFN1 impairs vesicular degradation in iPSC-derived microglia” (Nature Communications, 2024)

What was measured:
profilin-1 (PFN1) M114T = biological target: T1, profilin-1 (PFN1) M114T (Homo sapiens, UniProt P07737, M114T); experiment: […]-1H HSQC NMR titration (global fit); DSF; format: binding
T1 construct: recombinant, SUMO tag cleaved, 15N labeled

profilin-1 (PFN1) WT = biological target: T2, profilin-1 (PFN1) WT (Homo sapiens, UniProt P07737); experiment: […]-1H HSQC NMR titration (global fit); DSF; format: binding
T2 construct: recombinant, SUMO tag cleaved, 15N labeled
T2 sequence (P07737 2-140): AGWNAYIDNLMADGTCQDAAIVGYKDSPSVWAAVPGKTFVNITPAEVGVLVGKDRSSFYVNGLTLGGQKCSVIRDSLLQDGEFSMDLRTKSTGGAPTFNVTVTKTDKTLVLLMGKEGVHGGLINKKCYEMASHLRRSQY

T1 sequence (P07737 2-140 M114T): as the sequence (P07737 2-140) above, with M113T counted along it

Compound: CCCCCCCC(=O)OC[C@H](COP(=O)(O)O[C@@H]1[C@H](O)[C@H](OP(=O)(O)O)[C@@H](O)[C@H](O)[C@H]1O)OC(=O)CCCCCCC [PI3P]
- Kd (profilin-1 (PFN1) M114T): 370 ± 30 µM
- Kd (profilin-1 (PFN1) WT): 1880 ± 190 µM
